Experimental data as given in patent US11241406B2, “Compositions and methods for acutley raising nitric oxide levels” (Nature's Sunshine Products, Inc., priority 2015, dated 2022).

What was measured:
[1] = target: T1, Myeloperoxidase (MPO) (Homo sapiens, UniProt P05164); assay: Myeloperoxidase Inhibitor Screening Assay (chlorination, hypochlorous acid production); type: biochemical; conditions: MPO inhibition; parenthetic values are 95% confidence interval; read-out: Observed IC50 (converted)
T1 sequence (P05164 49-745): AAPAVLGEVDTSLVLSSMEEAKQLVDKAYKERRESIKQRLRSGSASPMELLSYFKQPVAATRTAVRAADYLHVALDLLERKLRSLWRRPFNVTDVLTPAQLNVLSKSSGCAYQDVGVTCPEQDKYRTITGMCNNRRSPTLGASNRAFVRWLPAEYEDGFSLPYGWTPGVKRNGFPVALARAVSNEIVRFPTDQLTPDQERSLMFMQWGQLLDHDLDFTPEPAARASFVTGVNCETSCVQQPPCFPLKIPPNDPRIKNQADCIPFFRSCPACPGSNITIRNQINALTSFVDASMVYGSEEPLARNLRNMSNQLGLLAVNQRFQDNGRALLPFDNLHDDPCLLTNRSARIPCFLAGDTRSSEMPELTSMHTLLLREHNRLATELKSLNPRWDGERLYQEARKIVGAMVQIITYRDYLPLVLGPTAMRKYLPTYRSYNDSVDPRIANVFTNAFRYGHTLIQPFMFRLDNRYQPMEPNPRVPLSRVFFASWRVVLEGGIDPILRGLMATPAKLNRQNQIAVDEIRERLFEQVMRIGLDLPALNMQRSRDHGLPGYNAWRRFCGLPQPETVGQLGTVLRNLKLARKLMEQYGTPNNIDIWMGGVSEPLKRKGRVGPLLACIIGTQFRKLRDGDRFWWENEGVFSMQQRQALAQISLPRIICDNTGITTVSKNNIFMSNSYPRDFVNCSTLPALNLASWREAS
Description: Formulations 1 and 2, as described in Table 2 above, were tested for their synergistic activity. Additional samples of F1 and F2 were prepared at an initial concentration of 100 mg/mL in an acetone:water (1:1) solution, sonicated in an ice bath for 60 min with vortexing every 10 min, and centrifuged at 3000 rpm at ambient temperature for 5 min. The supernatant liquid was transferred to fresh tubes and centrifuged again at 13,300 rpm at ambient temperature for 10 min. This final supernatant fraction was transferred to fresh tubes and stored at −80° C. until assayed.
The acetone used in this example was obtained through Fisher Chemical Co (Pittsburgh, Pa.) and was the highest purity available. […]
The chlorination assay utilizes the non-fluorescent 2-[6-(4-aminophenoxy)-3-oxo-3H-xanthen-9-yl]-benzoic acid (APF), which is selectively cleaved by hypochlorite to yield the highly fluorescent compound fluorescein. Fluorescein fluorescence was analyzed with an excitation wavelength of 480-495 nm and an emission wavelength of 515-525 nm using a Cytation5 microplate fluorescence reader (Bio Tek Instruments, Winooski, Vt.).
The median inhibitory concentration (IC50) for the inhibition of MPO activity was calculated using CalcuSyn (BIOSOFT, Ferguson, Mo.). […]
Synergy of test components was then quantified using the combination index (CI) parameter. […]

[2] = system: NO biomarker NO2 in saliva; assay: Salivary NO biomarker (NO2) test strips after dosing of the formulations; type: in vivo, human; conditions: pharmacodynamic studies in this laboratory
Description: Over three days, subjects, with normal plasma concentrations of ADMA, were instructed to consume the 10 g of either F1 or F2 with 500 mL of water subsequent to developing the first, pre-dose NO strip. At post-dosing times 30, 60 and 90 minutes, NO strips were again developed for all subjects. One subject was given a 2× dose (20 g) of both formulations over the experimental period. The salivary NO strips, which detect salivary NO2, were nitric Oxide Test Strips (Berkeley Test, Berkeley, Calif.). Color development of NO strips was quantitated using densitometry. Means and 95% confidence intervals were computed using Excel [Microsoft, Redman, Wash.].
The assay of nitrite in saliva and nitrate in Test Formulation 3 (F3) was conducted as described in Example 1. Color development of NO strips was quantitated as described in Example 1. Means and 95% confidence intervals were computed as described in Example 1.
During the morning period, subjects (n=5), with normal plasma concentrations of ADMA, were instructed to consume 5 mL of the F3 with 500 mL of water subsequent to developing the first, pre-dose NO strip. At post-dosing times 30, 60 and 90 minutes, NO strips were again developed for all subjects.

[3] = cited from earlier work

| IC50 [1] [µM] | Structure (SMILES) | NO3 content that does not produce a detectable increase in NO strip color development [2] | bioavailability ([3]; dietary NO3) [%] | half-life in plasma ([3]; orally consumed NO3) | time to peak plasma concentration ([3]; orally consumed NO3) |
| --- | --- | --- | --- | --- | --- |
| 46.4 | N=C(N)NCCC[C@H](N)C(=O)O [L-Arginine] |  |  |  |  |
| 103 | NC(=O)NCCC[C@H](N)C(=O)O [L-Citrulline] |  |  |  |  |
|  | O=[N+]([O-])O [NO3] | below 12.5 mg NO3/dose | 100 | about 5 hours | about 1 hour |
